Measured values reported in PubChem BioAssay (NCI).
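Assay format: 96-well plates, 48-hour exposure. GI50 = concentration required for 50% inhibition of growth. TGI is the concentration that stops growth completely.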

What was measured:
Test in all cases: NCI-60 cell line screen, 48 h
786-0 renal = tested on: 786-0 renal
ACHN renal = tested on: ACHN renal
HCC-2998 colon = tested on: HCC-2998 colon
MOLT-4 leukemia = tested on: MOLT-4 leukemia
NCI-H226 lung = tested on: NCI-H226 lung
OVCAR-4 ovarian = tested on: OVCAR-4 ovarian
PC-3 prostate = tested on: PC-3 prostate
SK-MEL-28 melanoma = tested on: SK-MEL-28 melanoma
SN12C renal = tested on: SN12C renal
U251 CNS = tested on: U251 CNS

Compound	GI50 (786-0 renal)	TGI (786-0 renal)	GI50 (ACHN renal)	TGI (ACHN renal)	GI50 (HCC-2998 colon)	TGI (HCC-2998 colon)	GI50 (MOLT-4 leukemia)	TGI (MOLT-4 leukemia)	GI50 (NCI-H226 lung)	TGI (NCI-H226 lung)	GI50 (OVCAR-4 ovarian)	TGI (OVCAR-4 ovarian)	GI50 (PC-3 prostate)	TGI (PC-3 prostate)	GI50 (SK-MEL-28 melanoma)	TGI (SK-MEL-28 melanoma)	GI50 (SN12C renal)	TGI (SN12C renal)	GI50 (U251 CNS)	TGI (U251 CNS)
Oc1cc(Cl)ccc1Oc1ccc(Cl)cc1Cl	2.47 µM	6.61 µM	3.47 µM	11.3 µM	2.57 µM	6.61 µM	3.74 µM	11.3 µM	2.32 µM	6.82 µM	2.79 µM	9.41 µM	2.78 µM	8.43 µM	3.09 µM	10.4 µM	3.12 µM	11.4 µM	2.73 µM	10.1 µM
COC(=O)[C@@H]1CCCN1C(=O)[C@@H]1CCCN1C(=O)[C@@H](Cc1c[nH]c2ccccc12)NC(=S)Nc1cc(C(F)(F)F)cc(C(F)(F)F)c1	5.95 µM	20.1 µM	4.28 µM	> 100 µM	2.9 µM	9.05 µM	3.16 µM	> 100 µM	7.74 µM	> 100 µM	4.32 µM	> 100 µM	2.95 µM	24.9 µM	1.95 µM	4.54 µM	6.81 µM	> 100 µM	4.31 µM	95.3 µM
Cc1ccc2c(c1)ncn2-c1ncnc2c1CC(C)c1ccccc1N2C (stereo not drawn)	0.487 µM	14.7 µM	0.383 µM	12.1 µM	0.304 µM	14.5 µM	0.0607 µM	4.36 µM	1.21 µM	18.7 µM	0.624 µM	24.7 µM	0.0561 µM	17.7 µM	1.84 µM	15.6 µM	0.444 µM	15.6 µM	0.086 µM	13.9 µM
Cc1c(C)c2ccc(OC/C=C3\CCC(=O)O3)cc2oc1=O	5.35 µM	20.8 µM	–	–	18.3 µM	33 µM	19.8 µM	> 100 µM	18.9 µM	40.8 µM	12.6 µM	28.9 µM	13.4 µM	31 µM	14.3 µM	28.1 µM	18.2 µM	43 µM	15.7 µM	29.3 µM
Nc1nc(Nc2cccc(F)c2)nc2ccccc12	17.4 µM	33.6 µM	20.4 µM	76.8 µM	18 µM	37.3 µM	14.6 µM	> 100 µM	35 µM	> 100 µM	22.9 µM	> 100 µM	31 µM	> 100 µM	15 µM	29 µM	32.8 µM	> 100 µM	16.8 µM	34.6 µM
O=c1oc2ccc(Cl)cc2c(=O)n1-c1ccc(I)cc1F	1.36 µM	4.13 µM	0.315 µM	7.51 µM	2.66 µM	8.51 µM	0.384 µM	1.81 µM	0.566 µM	2.92 µM	0.225 µM	> 87.2 µM	0.924 µM	6.92 µM	0.178 µM	2.01 µM	0.204 µM	3.07 µM	0.262 µM	> 35.6 µM
C=C(C)CCC(C)N1CCC(N2CCC(C(=O)NCCc3ccccc3)CC2)CC1 (stereo not drawn)	> 100 µM	> 100 µM	17.2 µM	53.8 µM	37.9 µM	> 100 µM	45.9 µM	> 100 µM	96.6 µM	> 100 µM	5.97 µM	73 µM	79.2 µM	> 100 µM	13.2 µM	27.5 µM	55.5 µM	> 100 µM	14.4 µM	33 µM
CCN1C(=O)N(CC)C2C1NN=c1s/c(=C3\C(=O)N(C)c4ccccc43)c(=O)n12 (stereo not drawn)	1.94 µM	> 100 µM	0.752 µM	> 100 µM	1.8 µM	> 100 µM	1.7 µM	> 100 µM	1.45 µM	> 100 µM	8.51 µM	> 100 µM	1.14 µM	> 100 µM	3.09 µM	> 100 µM	2.89 µM	> 100 µM	1.97 µM	> 68.9 µM
C[C@H](CS(C)(=O)=O)Nc1ncc2cc(Oc3ccc(F)cc3F)c(=O)n(C)c2n1	> 25 µM	> 25 µM	> 25 µM	> 25 µM	> 25 µM	> 25 µM	> 25 µM	> 25 µM	> 25 µM	> 25 µM	> 25 µM	> 25 µM	> 25 µM	> 25 µM	> 25 µM	> 25 µM	> 25 µM	> 25 µM	> 25 µM	> 25 µM
Clc1ccc2nc(Oc3ccccc3)cnc2c1	> 100 µM	> 100 µM	> 100 µM	> 100 µM	> 100 µM	> 100 µM	> 100 µM	> 100 µM	> 100 µM	> 100 µM	> 100 µM	> 100 µM	> 100 µM	> 100 µM	> 100 µM	> 100 µM	> 100 µM	> 100 µM	> 100 µM	> 100 µM
Fc1ccc(Nc2nccc(-c3c(-c4ccc(C(F)(F)F)cc4)nn4ncccc34)n2)cc1F	> 25 µM	> 25 µM	> 25 µM	> 25 µM	> 25 µM	> 25 µM	> 25 µM	> 25 µM	> 25 µM	> 25 µM	> 25 µM	> 25 µM	> 25 µM	> 25 µM	> 25 µM	> 25 µM	> 25 µM	> 25 µM	> 25 µM	> 25 µM
Fc1ccc(Nc2nc(NCCNc3ccnc4cc(Cl)ccc34)nc(N3CCOCC3)n2)cc1	3.35 µM	15.3 µM	7.06 µM	20.2 µM	2 µM	3.95 µM	4.16 µM	16.5 µM	14.4 µM	33.4 µM	10.7 µM	23.1 µM	4.87 µM	18.5 µM	1.83 µM	3.25 µM	11.6 µM	25 µM	4.72 µM	17.5 µM
